Source: ChEMBL document CHEMBL5724914, “Linking interpersonal differences in gut microbiota composition and drug biotransformation activity” (2024)
Where a SMILES comes first, the peptide text is derived from it. [ ]: non-standard residue; d: D form. pGlu = O=C1CC[C@@H](C(=O)O)N1; Thz = O=C(O)[C@@H]1CSCN1

test: (§1) The drug is tested on Z-014 corresponding to rat gut metagenome with ENA study accession number: PRJEB37062 and ENA sample accession number: ERS12561814 for biotransformation under anaerobic condition. The drug concentrations were measured over 9 timepoints collected between 0 and 24 hours of incubation by liquid-chromatography-coupled mass spectrometry (LC–MS); settings: 2 µM
Also: call rule not given here.

SMILES	Bacterial Biotransformation
O=C(NCc1ccccc1)OCCO [BURAMATE]	Compound NOT metabolized
O=C1CC[C@@H](C(=O)N2CSC[C@H]2C(=O)O)N1 [PIDOTIMOD] ([pGlu]-[Thz]-OH)	Compound NOT metabolized
C=CCN1CC[C@]23c4c5ccc(O)c4O[C@H]2C(=O)CC[C@@]3(O)[C@H]1C5 [NALOXONE]	Compound NOT metabolized
c1ccc([C@H]2CN3CCSC3=N2)cc1 [LEVAMISOLE]	Compound NOT metabolized

settings: human gut metagenome, 24 h, 2 µM

SMILES	Bacterial Biotransformation
O=C(NCc1ccccc1)OCCO [BURAMATE]	Compound NOT metabolized
O=C1CC[C@@H](C(=O)N2CSC[C@H]2C(=O)O)N1 [PIDOTIMOD] ([pGlu]-[Thz]-OH)	Compound NOT metabolized
C=CCN1CC[C@]23c4c5ccc(O)c4O[C@H]2C(=O)CC[C@@]3(O)[C@H]1C5 [NALOXONE]	Compound NOT metabolized
c1ccc([C@H]2CN3CCSC3=N2)cc1 [LEVAMISOLE]	Compound metabolized

test: as §1, with “on WLS-220” for “on Z-014”, “to human” for “to rat”, “number: ERS12561769” for “number: ERS12561814”; settings: 2 µM

SMILES	Bacterial Biotransformation
O=C(NCc1ccccc1)OCCO [BURAMATE]	Compound NOT metabolized
O=C1CC[C@@H](C(=O)N2CSC[C@H]2C(=O)O)N1 [PIDOTIMOD] ([pGlu]-[Thz]-OH)	Compound NOT metabolized
C=CCN1CC[C@]23c4c5ccc(O)c4O[C@H]2C(=O)CC[C@@]3(O)[C@H]1C5 [NALOXONE]	Compound NOT metabolized
c1ccc([C@H]2CN3CCSC3=N2)cc1 [LEVAMISOLE]	Compound metabolized

test: as §1, with “on Z-017” for “on Z-014”, “to mouse” for “to rat”, “number: ERS12561816” for “number: ERS12561814”; settings: 2 µM

SMILES	Bacterial Biotransformation
O=C1CC[C@@H](C(=O)N2CSC[C@H]2C(=O)O)N1 [PIDOTIMOD] ([pGlu]-[Thz]-OH)	Compound NOT metabolized
C=CCN1CC[C@]23c4c5ccc(O)c4O[C@H]2C(=O)CC[C@@]3(O)[C@H]1C5 [NALOXONE]	Compound NOT metabolized
c1ccc([C@H]2CN3CCSC3=N2)cc1 [LEVAMISOLE]	Compound NOT metabolized

test: as §1, with “on WLS-073” for “on Z-014”, “to human” for “to rat”, “number: ERS12561749” for “number: ERS12561814”; settings: 2 µM

SMILES	Bacterial Biotransformation
O=C(NCc1ccccc1)OCCO [BURAMATE]	Compound NOT metabolized
O=C1CC[C@@H](C(=O)N2CSC[C@H]2C(=O)O)N1 [PIDOTIMOD] ([pGlu]-[Thz]-OH)	Compound NOT metabolized
C=CCN1CC[C@]23c4c5ccc(O)c4O[C@H]2C(=O)CC[C@@]3(O)[C@H]1C5 [NALOXONE]	Compound NOT metabolized

settings: human gut metagenome, 24 h, 2 µM; remark: another data set of the same source

SMILES	Bacterial Biotransformation
O=C(NCc1ccccc1)OCCO [BURAMATE]	Compound NOT metabolized
O=C1CC[C@@H](C(=O)N2CSC[C@H]2C(=O)O)N1 [PIDOTIMOD] ([pGlu]-[Thz]-OH)	Compound NOT metabolized
C=CCN1CC[C@]23c4c5ccc(O)c4O[C@H]2C(=O)CC[C@@]3(O)[C@H]1C5 [NALOXONE]	Compound NOT metabolized
c1ccc([C@H]2CN3CCSC3=N2)cc1 [LEVAMISOLE]	Compound metabolized

settings: human gut metagenome, 24 h, 2 µM; remark: another data set of the same source

SMILES	Bacterial Biotransformation
O=C(NCc1ccccc1)OCCO [BURAMATE]	Compound NOT metabolized
O=C1CC[C@@H](C(=O)N2CSC[C@H]2C(=O)O)N1 [PIDOTIMOD] ([pGlu]-[Thz]-OH)	Compound NOT metabolized
C=CCN1CC[C@]23c4c5ccc(O)c4O[C@H]2C(=O)CC[C@@]3(O)[C@H]1C5 [NALOXONE]	Compound NOT metabolized
c1ccc([C@H]2CN3CCSC3=N2)cc1 [LEVAMISOLE]	Compound metabolized

settings: human gut metagenome, 24 h, 2 µM; remark: another data set of the same source

SMILES	Bacterial Biotransformation
O=C(NCc1ccccc1)OCCO [BURAMATE]	Compound NOT metabolized
O=C1CC[C@@H](C(=O)N2CSC[C@H]2C(=O)O)N1 [PIDOTIMOD] ([pGlu]-[Thz]-OH)	Compound NOT metabolized
C=CCN1CC[C@]23c4c5ccc(O)c4O[C@H]2C(=O)CC[C@@]3(O)[C@H]1C5 [NALOXONE]	Compound NOT metabolized
c1ccc([C@H]2CN3CCSC3=N2)cc1 [LEVAMISOLE]	Compound metabolized

test: as §1, with “on WLS-310” for “on Z-014”, “to human” for “to rat”, “number: ERS12561785” for “number: ERS12561814”; settings: 2 µM

SMILES	Bacterial Biotransformation
O=C(NCc1ccccc1)OCCO [BURAMATE]	Compound NOT metabolized
C=CCN1CC[C@]23c4c5ccc(O)c4O[C@H]2C(=O)CC[C@@]3(O)[C@H]1C5 [NALOXONE]	Compound NOT metabolized
c1ccc([C@H]2CN3CCSC3=N2)cc1 [LEVAMISOLE]	Compound metabolized

settings: human gut metagenome, 24 h, 2 µM; remark: another data set of the same source

SMILES	Bacterial Biotransformation
O=C(NCc1ccccc1)OCCO [BURAMATE]	Compound NOT metabolized
O=C1CC[C@@H](C(=O)N2CSC[C@H]2C(=O)O)N1 [PIDOTIMOD] ([pGlu]-[Thz]-OH)	Compound NOT metabolized
C=CCN1CC[C@]23c4c5ccc(O)c4O[C@H]2C(=O)CC[C@@]3(O)[C@H]1C5 [NALOXONE]	Compound NOT metabolized
c1ccc([C@H]2CN3CCSC3=N2)cc1 [LEVAMISOLE]	Compound metabolized

test: as §1, with “Z-019” for “Z-014”, “ERS12561818” for “ERS12561814”; settings: 2 µM

SMILES	Bacterial Biotransformation
O=C(NCc1ccccc1)OCCO [BURAMATE]	Compound NOT metabolized
O=C1CC[C@@H](C(=O)N2CSC[C@H]2C(=O)O)N1 [PIDOTIMOD] ([pGlu]-[Thz]-OH)	Compound NOT metabolized
C=CCN1CC[C@]23c4c5ccc(O)c4O[C@H]2C(=O)CC[C@@]3(O)[C@H]1C5 [NALOXONE]	Compound NOT metabolized
c1ccc([C@H]2CN3CCSC3=N2)cc1 [LEVAMISOLE]	Compound NOT metabolized

test: as §1, with “on WLS-007” for “on Z-014”, “to human” for “to rat”, “number: ERS12561742” for “number: ERS12561814”; settings: 2 µM

SMILES	Bacterial Biotransformation
O=C(NCc1ccccc1)OCCO [BURAMATE]	Compound NOT metabolized
c1ccc([C@H]2CN3CCSC3=N2)cc1 [LEVAMISOLE]	Compound metabolized

test: as §1, with “on Z-013” for “on Z-014”, “to rabbit” for “to rat”, “number: ERS12561813” for “number: ERS12561814”; settings: 2 µM

SMILES	Bacterial Biotransformation
O=C(NCc1ccccc1)OCCO [BURAMATE]	Compound NOT metabolized
O=C1CC[C@@H](C(=O)N2CSC[C@H]2C(=O)O)N1 [PIDOTIMOD] ([pGlu]-[Thz]-OH)	Compound NOT metabolized
C=CCN1CC[C@]23c4c5ccc(O)c4O[C@H]2C(=O)CC[C@@]3(O)[C@H]1C5 [NALOXONE]	Compound NOT metabolized
c1ccc([C@H]2CN3CCSC3=N2)cc1 [LEVAMISOLE]	Compound NOT metabolized

test: as §1, with “on WLS-038” for “on Z-014”, “to human” for “to rat”, “number: ERS12561745” for “number: ERS12561814”; settings: 2 µM

SMILES	Bacterial Biotransformation
O=C(NCc1ccccc1)OCCO [BURAMATE]	Compound NOT metabolized
O=C1CC[C@@H](C(=O)N2CSC[C@H]2C(=O)O)N1 [PIDOTIMOD] ([pGlu]-[Thz]-OH)	Compound metabolized
C=CCN1CC[C@]23c4c5ccc(O)c4O[C@H]2C(=O)CC[C@@]3(O)[C@H]1C5 [NALOXONE]	Compound NOT metabolized
c1ccc([C@H]2CN3CCSC3=N2)cc1 [LEVAMISOLE]	Compound metabolized

settings: human gut metagenome, 24 h, 2 µM; remark: another data set of the same source

SMILES	Bacterial Biotransformation
O=C(NCc1ccccc1)OCCO [BURAMATE]	Compound NOT metabolized
O=C1CC[C@@H](C(=O)N2CSC[C@H]2C(=O)O)N1 [PIDOTIMOD] ([pGlu]-[Thz]-OH)	Compound NOT metabolized
C=CCN1CC[C@]23c4c5ccc(O)c4O[C@H]2C(=O)CC[C@@]3(O)[C@H]1C5 [NALOXONE]	Compound NOT metabolized
c1ccc([C@H]2CN3CCSC3=N2)cc1 [LEVAMISOLE]	Compound metabolized

test: as §1, with “on Z-016” for “on Z-014”, “to mouse” for “to rat”, “number: ERS12561815” for “number: ERS12561814”; settings: 2 µM

SMILES	Bacterial Biotransformation
O=C(NCc1ccccc1)OCCO [BURAMATE]	Compound NOT metabolized
O=C1CC[C@@H](C(=O)N2CSC[C@H]2C(=O)O)N1 [PIDOTIMOD] ([pGlu]-[Thz]-OH)	Compound NOT metabolized
C=CCN1CC[C@]23c4c5ccc(O)c4O[C@H]2C(=O)CC[C@@]3(O)[C@H]1C5 [NALOXONE]	Compound NOT metabolized
c1ccc([C@H]2CN3CCSC3=N2)cc1 [LEVAMISOLE]	Compound NOT metabolized

settings: human gut metagenome, 24 h, 2 µM; remark: another data set of the same source

SMILES	Bacterial Biotransformation
O=C(NCc1ccccc1)OCCO [BURAMATE]	Compound NOT metabolized
C=CCN1CC[C@]23c4c5ccc(O)c4O[C@H]2C(=O)CC[C@@]3(O)[C@H]1C5 [NALOXONE]	Compound NOT metabolized
c1ccc([C@H]2CN3CCSC3=N2)cc1 [LEVAMISOLE]	Compound metabolized

settings: human gut metagenome, 24 h, 2 µM; remark: another data set of the same source

SMILES	Bacterial Biotransformation
O=C(NCc1ccccc1)OCCO [BURAMATE]	Compound NOT metabolized
O=C1CC[C@@H](C(=O)N2CSC[C@H]2C(=O)O)N1 [PIDOTIMOD] ([pGlu]-[Thz]-OH)	Compound NOT metabolized
C=CCN1CC[C@]23c4c5ccc(O)c4O[C@H]2C(=O)CC[C@@]3(O)[C@H]1C5 [NALOXONE]	Compound NOT metabolized
c1ccc([C@H]2CN3CCSC3=N2)cc1 [LEVAMISOLE]	Compound metabolized

test: as §1, with “Z-008” for “Z-014”, “to” for “to rat gut”, “ERS12561808” for “ERS12561814”; settings: 2 µM

SMILES	Bacterial Biotransformation
O=C(NCc1ccccc1)OCCO [BURAMATE]	Compound NOT metabolized
C=CCN1CC[C@]23c4c5ccc(O)c4O[C@H]2C(=O)CC[C@@]3(O)[C@H]1C5 [NALOXONE]	Compound NOT metabolized

test: as §1, with “on WLS-086” for “on Z-014”, “to human” for “to rat”, “number: ERS12561752” for “number: ERS12561814”; settings: 2 µM

SMILES	Bacterial Biotransformation
O=C(NCc1ccccc1)OCCO [BURAMATE]	Compound NOT metabolized
O=C1CC[C@@H](C(=O)N2CSC[C@H]2C(=O)O)N1 [PIDOTIMOD] ([pGlu]-[Thz]-OH)	Compound NOT metabolized
C=CCN1CC[C@]23c4c5ccc(O)c4O[C@H]2C(=O)CC[C@@]3(O)[C@H]1C5 [NALOXONE]	Compound NOT metabolized
